Assay results published in patent US20070048329A1, “Epstein barr virus peptide epitopes, polyepitopes and delivery system therefor” (priority 2002, published 2007).

What was measured:
Assay type in all cases: cell-based, human
[1] = tested on: T cells in PBMC of EBV seropositive donors; assay: IFN-γ ELISPOT assay, ex vivo stimulation of PBMC with LMP1 peptides
Procedure: The ELISPOT assay was used to assess whether stimulation of PBMC from a large panel of seropositive donors with LMP1 peptides could induce IFN-γ expression in T cells (Bharadwaj 2001). Briefly, ninety six-well mixed cellulose ester membrane plates (Millipore, Bedford, USA) were precoated with 100 μL/well of […] of anti-IFN-γ mAb, 1-D1K (Mabtech, Stockhohn, Sweden) overnight at 4° C. The plate was washed six times with phosphate-buffered saline (PBS), and unreactive sites blocked using 5% foetal bovine serum. PBMCs from healthy EBV carriers of known HLA types were separated from whole blood by Ficoll-Hypaque (Sigma) density gradient centrifugation. PBMCs were added in triplicate wells at 2.5×10^5 cells in a volume of 100 μL/well, and then peptides were added onto the PBMCs at a final 5 μg/mL concentration. PBMCs were also tested at different concentrations in triplicate wells at 2.5×10^5, 1.5×10^5 and 1×10^5 cells/well. PBMCs with various peptide concentrations, 10 μg/mL, 5 μg/mL and 1 μg/mL, were assayed. For negative controls, PBMCs were incubated in growth medium alone without adding peptides. The plate was incubated at 37° C. with 5% CO2 overnight (about 16-20 hr), then washed thrice with PBST (0.05% of Tween-20 in PBS) and three times with PBS before 100 μL/well of 1 μg/mL anti-IFN-γ mAb, 7-B6-1 (Mabtech, Stockholn, Sweden) was added and incubated at room temperature for 3-4 hr. After incubation, the plate was washed again thrice each with PBST and PBS, and 100 μL/well of 1 μg/mL streptavidin-alkaline phosphatase conjugate (Sigma) was added. The plate was incubated at room temperature for 2 hr. Wells were washed again three times each with PBST and PBS, and individual IFN-γ-producing cells were detected as dark spots after about 30-min to an hour-colour reaction with 5-bromo-4-chloro-3-indolylphosphate and nitroblue tetrazolium using an alkaline phosphatase-conjugated substrate (BCIP/NBT; Sigma). Spots were counted automatically using an image analysis software (ImagePro) (Bharadwaj 2001), and were expressed as spot-forming cells (SFC) per 10^6 PBMCs. The number of IFN-γ-secreting T cells was calculated by subtracting the negative control value from the SFC count.
To comprehensively profile the memory T cell responses against the LMP1 in seropositive virus carriers we used the ELISPOT assay, which allowed rapid ex vivo profiling of LMP1-specific immune response without prolonged in vitro culture. PBMC isolated from a panel of seropositive healthy virus carriers (Table 2) were stimulated with the complete set of overlapping LMP1 peptides and the cells that produced IFN-γ were detected. […] One of the interesting features of these responses was that the majority of the T cell reactivity was directed towards the epitopes within the transmembrane and CTAR1 domains of LMP1, while no reactivity was observed towards the CTAR2 and N-terminus (FIG. 1B). In particular, almost 80% of the CTAR1 domain was targeted for T cell recognition. To identify the T cell subsets responding to these peptides, PBMCs from the seven donors who recognized 17-mer peptides were fractionated into CD4-depleted and CD8-depleted populations and then tested again in ELISPOT assays. […] The CD4-dependent reactivity of the peptide […] was consistent with the previous observations by Leen and colleagues who mapped an HLA DQ2-restricted epitope within this sequence.
In order to determine the frequency of recognition of the HLA class I-restricted LMP1 CTL epitopes, PBMC from a panel of healthy virus carriers of diverse ethnic origin were screened by ELISPOT assays. Four different HLA class I-restricted and one HLA class II-restricted T cell epitopes were included in this analysis. Strong responses were observed against the HLA-A2-restricted […], […] and […] epitopes in 35-45% of the donors tested. […]

[2] = tested on: peptide-sensitised PHA blasts and LCLs; assay: 51Cr-release cytotoxicity assay with peptide-specific CTL lines and clones; conditions: for generation of CTL lines with minimised epitope: donors; for sensitizing autologous PHA blast to lysis by YLLEMLWRL-specific CTL clone: serial dilutions of peptide, compared with wild-type YLLEMLWRL, CTL clone SB7
Procedure: Polyclonal CTL lines and LMP1-specific CTL clones were established according to previously published methods (Moss 1988; Khanna 1998). Briefly, 2×10^6 PBMCs were stimulated with 1×10^6 autologous lymphocytes (responder to stimulator ratio of 2:1) pulsed with 10 μM peptide for 1 hr in 2 ml in a 24-well plate. After 3 days, culture medium with IL-2 (10 U/ml) was added and the cells were further expanded. These lymphocytes were restimulated on day 7 with γ-irradiated (8000 rad) autologous LCLs. After 10 days in culture medium, the cells were used as polyclonal effectors in a standard ^51Cr-release assay against peptide-sensitised autologous PHA blasts.
To generate peripheral blood CTL clones specific for the LMP1 derived peptides, PBMCs of healthy donors were reactivated (2×10^6) PBMCs with peptide-sensitised (10 ug of peptide/ml) autologous lymphocytes (1×10^6) in 2 ml wells of a 24-well plate in culture medium. After 3 days, the cells were seeded onto 0.35% agarose and maintained in T cell growth medium containing rIL2 (50 IU/ml). After another 3 days, growing clones were transferred to 96-well round-bottom tissue culture plates (Life Technologies) and cultured in T cell growth medium containing rIL2 (50-100 IU/ml).
Target cells were pre-sensitized with synthetic peptide epitopes and then incubated with ^51Cr for 90 min. Following incubation, these cells were washed in growth medium and used as targets in a standard 5 h ^51Cr-release assay (Moss, 1988)
To further characterize the minimal T cell epitopes defined by ELISPOT assays we generated polyclonal and clonal CTL lines specific for these epitopes. PBMCs from the healthy seropositive donors were stimulated with synthetic peptide epitopes and the CTL clones or polyclonal lines were established and tested in standard ^51Cr-release assays. The […] peptide-specific CTL clones were generated using initial stimulation with peptide-sensitized autologous PBMC followed by continuous restimulation with irradiated autologous LCL. These CTL clones were screened for […]-specific CTL activity by ^51Cr release assays against peptide-sensitised autologous and allogeneic PHA blast and LCLs. […] Titration of this minimal epitope on autologous PHA blasts further confirmed the fine specificity of this CTL clone (FIG. 5B).

[3] = tested on: CD4+ and CD8+ T cell populations of PBMC; assay: IFN-γ ELISPOT on CD4- or CD8-depleted PBMC; conditions: peptide 10 μg/ml
Procedure: FIG. 2: Ex vivo detection of IFN-γ secretion by CD4^+ and CD8^+ T cell populations following stimulation with LMP1 peptides. CD4^+ cells or CD8^+ cells were depleted from fresh PBMCs using anti-human CD4 or CD8 immunomagnetic beads as described in the Material and Methods section. These cells were resuspended in growth medium and stimulated with […] (SEQ ID NO: 36; panel A) and […] (SEQ ID NO: 39; panel B) peptides (10 μg/ml) and then tested for IFN-γ secretion using ELISPOT assays.
CD4^+ cells or CD8^+ cells were depleted from fresh PBMCs using anti-human CD4 or CD8 immunomagnetic beads (Dynabeads M450-CD4 and M450-CD8), respectively (Dynal, Oslo, Norway) according to the manufacturer's instructions. Efficient depletion was confirmed by staining the depleted PBMCs using dual staining with FITC-conjugated anti-CD8 and PE-conjugated anti-CD4 antibody and flow cytometry on a Coulter EPICS XL cytometer. […]
To comprehensively profile the memory T cell responses against the LMP1 in seropositive virus carriers we used the ELISPOT assay, which allowed rapid ex vivo profiling of LMP1-specific immune response without prolonged in vitro culture. PBMC isolated from a panel of seropositive healthy virus carriers (Table 2) were stimulated with the complete set of overlapping LMP1 peptides and the cells that produced IFN-γ were detected. […]

[4] = subject nineteen (NPC), donor theta

| Sequence | CTL response (SFC/10^6 PBMC) ([1]; subject beta) | CTL response (SFC/10^6 PBMC) ([1]; subject eleven) | CTL response (SFC/10^6 PBMC) ([1]; subject epsilon) | CTL response (SFC/10^6 PBMC) ([1]; subject fifteen) | CTL response (SFC/10^6 PBMC) ([1]; subject four) | CTL response (SFC/10^6 PBMC) ([1]; subject gamma) | CTL response (SFC/10^6 PBMC) [1, 4] | CTL response (SFC/10^6 PBMC) ([1]; subject thirteen) | CTL response (SFC/10^6 PBMC) ([1]; subject three) | CTL response (SFC/10^6 PBMC) ([1]; subject twenty) | CTL response (SFC/10^6 PBMC) ([1]; subject twenty-one) | CTL response (SFC/10^6 PBMC) ([1]; subject zeta) | also measured |
| --- | --- | --- | --- | --- | --- | --- | --- | --- | --- | --- | --- | --- | --- |
| ALLVLYSFA | 0 SFC/10^6 PBMC | 128 SFC/10^6 PBMC | 0 SFC/10^6 PBMC | 80 SFC/10^6 PBMC | 0 SFC/10^6 PBMC | 0 SFC/10^6 PBMC | 0 SFC/10^6 PBMC | 0 SFC/10^6 PBMC | 192 SFC/10^6 PBMC | 88 SFC/10^6 PBMC | 592 SFC/10^6 PBMC | 0 SFC/10^6 PBMC | CTL response (SFC/10^6 PBMC) ([1]; subject eighteen): 1184 SFC/10^6 PBMC; CTL response (SFC/10^6 PBMC) ([1]; subject one): 96 SFC/10^6 PBMC; CTL response (SFC/10^6 PBMC) ([1]; subject six): 480 SFC/10^6 PBMC; CTL response (SFC/10^6 PBMC) ([1]; subject twenty-two): 10 SFC/10^6 PBMC |
| DSNSNEGRH | – | – | – | – | – | – | – | – | – | – | – | – | generation of CTL lines with minimised epitope [2]: did not generate CTL lines |
| DWTGGALLVLYSFALML [LMP1 17-mer peptide] | – | – | – | – | – | – | – | – | – | – | – | – | T cell subset responding to the peptide [3]: only CD8^+ T-cell dependent reactivity |
| ESDSNSNEG [reference compound] | – | – | – | – | – | – | – | – | – | – | – | – | generation of CTL lines with minimised epitope [2]: did not generate CTL lines |
| IALYLQQNW | – | 504 SFC/10^6 PBMC | – | – | – | 0 SFC/10^6 PBMC | 0 SFC/10^6 PBMC | – | – | – | – | – | HLA B58-positive donors recognizing the epitope ([1]; responders/tested): 3/5; CTL response (SFC/10^6 PBMC) ([1]; subject delta): 0 SFC/10^6 PBMC; CTL response (SFC/10^6 PBMC) ([1]; subject eight): 1952 SFC/10^6 PBMC; CTL response (SFC/10^6 PBMC) ([1]; subject eta (NPC)): 0 SFC/10^6 PBMC; CTL response (SFC/10^6 PBMC) ([1]; subject five): 100 SFC/10^6 PBMC; CTL response (SFC/10^6 PBMC) ([1]; subject fourteen): 955 SFC/10^6 PBMC; CTL response (SFC/10^6 PBMC) ([1]; subject nine): 240 SFC/10^6 PBMC; CTL response (SFC/10^6 PBMC) ([1]; subject seventeen): 897 SFC/10^6 PBMC; CTL response (SFC/10^6 PBMC) ([1]; subject six): 455 SFC/10^6 PBMC; CTL response (SFC/10^6 PBMC) ([1]; subject ten): 80 SFC/10^6 PBMC; CTL response (SFC/10^6 PBMC) ([1]; subject two): 48 SFC/10^6 PBMC |
| TDDSGHESDSNSNEGRH | – | – | – | – | – | – | – | – | – | 141 SFC/10^6 PBMC | – | – | healthy virus carriers tested recognizing the epitope [1]: all three; healthy donors showing a CD8+ T-cell response in Elispot assays ([1]; responders/healthy donors assessed): 3/21; magnitude of responses ([1]; responding healthy donors): 131-190 SFC/10^6 PBMC; CTL response (SFC/10^6 PBMC) ([1]; subject seventeen): 190 SFC/10^6 PBMC; CTL response (SFC/10^6 PBMC) ([1]; subject ten): 131 SFC/10^6 PBMC; T cell subset responding to the peptide [3]: predominantly mediated by CD4+ cells; recognition of peptide coated autologous PHA blasts by polyclonal CTL lines ([2]; CTL lines from two donors, data not shown): recognition |
| YFLEILWGL | – | – | – | – | – | – | – | – | – | – | – | – | sensitizing autologous PHA blast to lysis by YLLEMLWRL-specific CTL clone [2]: poorly recognized |
| YLLEMLWRL [reference compound] | 0 SFC/10^6 PBMC | 136 SFC/10^6 PBMC | 0 SFC/10^6 PBMC | 300 SFC/10^6 PBMC | 0 SFC/10^6 PBMC | 0 SFC/10^6 PBMC | 0 SFC/10^6 PBMC | 0 SFC/10^6 PBMC | 42 SFC/10^6 PBMC | 160 SFC/10^6 PBMC | 66 SFC/10^6 PBMC | 0 SFC/10^6 PBMC | CTL response (SFC/10^6 PBMC) ([1]; subject seven): 100 SFC/10^6 PBMC; CTL response (SFC/10^6 PBMC) ([1]; subject sixteen): 20 SFC/10^6 PBMC; CTL response (SFC/10^6 PBMC) ([1]; subject twelve): 0 SFC/10^6 PBMC |
| YLMEILWRL | – | – | – | – | – | – | – | – | – | – | – | – | sensitizing autologous PHA blast to lysis by YLLEMLWRL-specific CTL clone [2]: poorly recognized |
| YLQQNWWTL [reference compound] | 0 SFC/10^6 PBMC | 196 SFC/10^6 PBMC | 0 SFC/10^6 PBMC | 100 SFC/10^6 PBMC | 0 SFC/10^6 PBMC | 0 SFC/10^6 PBMC | 0 SFC/10^6 PBMC | 0 SFC/10^6 PBMC | 28 SFC/10^6 PBMC | 244 SFC/10^6 PBMC | 38 SFC/10^6 PBMC | 0 SFC/10^6 PBMC | CTL response (SFC/10^6 PBMC) ([1]; subject seven): 110 SFC/10^6 PBMC; CTL response (SFC/10^6 PBMC) ([1]; subject sixteen): 26 SFC/10^6 PBMC; CTL response (SFC/10^6 PBMC) ([1]; subject twelve): 44 SFC/10^6 PBMC |
